Data on one compound can be found in patent US20130315834A1, “NANOPROBE COMPRISING GOLD COLLOID NANOPARTICLES FOR MULTIMODALITY OPTICAL IMAGING OF CANCER AND TARGETED DRUG DELIVERY FOR CANCER” (priority 2010, published 2013).

One assay has as its system A-431 cell lines. The experiment in a line: PDT in cellular model, white light, apoptosis/necrosis staining (Example 7). In kind it is cell-based, human. Particulars: about 12 hours incubation, broadband white light; hypericin 2-10 μM. The protocol: After establishing the internalization and delivery capabilities of Hypericin-Au-EGFR probe, the therapeutic potential of the probe by conducting a PDT experiment in a cellular model is examined. Hypericin-Au-EGFR probe and various amounts of hypericin are incubated with A-431 cell lines for about 12 hours and PDT is conducted using a broadband excitation using white light. Post PDT images are recorded using a confocal fluorescence microscopy with differential staining for apoptosis in green (as indicated by the white encircled area) and necrosis in red (as shown by the lighter shade indicated by the white arrow) to assess the PDT effect.

A further assay deals with CNE2 cells. As to the kind of experiment: In-vitro uptake of hypericin, confocal fluorescence microscopy. The format is cell-based. Particulars: 2 hypericin, about 6 hours, physiological conditions. The protocol:
Confocal fluorescence microscopy is used to study CNE2 cells treated with 2 hypericin and A-431 cells treated with Hypericin-Au-EGFR theragnostic probe for about 6 hours under physiological conditions. […] This will be ideal for a probe for diagnosis and therapy.

The test system of the next assay is A-431 cells. Described as above. In kind it is cell-based, human. To be noted: about 3 hours incubation, FIG. 9b. The protocol: Targeting and localization of the nanoprobes to cellular receptors is assessed using dark field contrast imaging and confocal fluorescence microscopy. Briefly, A-431 cells are incubated with the nanoprobes for about 3 hours at about 37° C. The cells are then washed in PBS, fixed in 2% paraformaldehyde for about 10 mins and mounted in Vectashield fluorescent mounting medium (Vector Laboratories, Burlingame, Calif.). The cells are visualized via dark field illumination system (CytoViva, Auburn, Ala.) attached to a Nikon Eclipse 80i microscope. The in-vitro localization of the nanoprobes is also assessed by exciting the cells using a 488 nm argon laser. Fluorescence emission in the wavelength range of 590-630 nm is split by a dichroic filter and detected through a band pass filter (BP-610 nm; Omega Optical, Brattleboro, Vt.). […]
Confocal fluorescence microscopy is used to study CNE2 cells treated with 2 hypericin and A-431 cells treated with Hypericin-Au-EGFR theragnostic probe for about 6 hours under physiological conditions. […]
Using confocal laser scanning microscope, the in-vitro uptake of hypericin-GNP labeled with anti-EGFR after about 3 hours incubation is also assessed. […] The intensity of hypericin fluorescence following incubation of hypericin alone is greater compared to incubating the cells with bioconjugated hypericin GNP conjugate (FIG. 9b). […]

Molecules are shown by their SMILES.

In the case of `Cc1cc(O)c2c(=O)c3c(O)cc(O)c4c5c(O)cc(O)c6c(=O)c7c(O)cc(C)c8c1c2c(c34)c(c78)c65` [hypericin], the “mode of cell death after PDT” value with A-431 cell lines is “cell death via necrosis”. The “hypericin fluorescence in cells” value with CNE2 cells was “hypericin fluorescence from within the cell”. In addition, the “intensity of hypericin fluorescence, hypericin alone compared to bioconjugated hypericin GNP” value in the assay with A-431 cells was “greater”.
